Laboratory results published in the NIST ThermoML archive (doi:10.1021/acs.jced.6b00327).
Numbers after ± are expanded uncertainties.

Experiment: xn = mol fraction of the nth substance listed
Details: Liquid, Buoyancy - hydrostatic balance with magnetic suspension - one sinker

F/C=C/C(F)(F)F [trans-1,3,3,3-tetrafluoropropene] + CCC
Details | mass density [kg/m3]
253.14 K, x1 = 0.4965 | 913.53 ± 4.4
253.3 K, x1 = 0.1746 | 680.21 ± 4.3
253.44 K, x1 = 0.8803 | 1197.23 ± 4.3
253.45 K, x1 = 0.7006 | 1067.62 ± 4.5
256.11 K, x1 = 0.1746 | 676.35 ± 4.3
258.14 K, x1 = 0.7006 | 1056.03 ± 4.4
258.17 K, x1 = 0.4965 | 903.57 ± 4.4
258.2 K, x1 = 0.8803 | 1186.23 ± 4.4
261.14 K, x1 = 0.1746 | 670.01 ± 4.2
263.15 K, x1 = 0.7006 | 1043.42 ± 4.4
263.16 K, x1 = 0.4965 | 892.67 ± 4.3
263.17 K, x1 = 0.8803 | 1175.37 ± 4.4
265.18 K, x1 = 0.1746 | 662.22 ± 4.2
268.17 K, x1 = 0.7006 | 1030.6 ± 4.4
268.19 K, x1 = 0.4965 | 884.02 ± 4.2
268.2 K, x1 = 0.8803 | 1162.41 ± 4.4
269.18 K, x1 = 0.1746 | 655.74 ± 4.2
273.18 K, x1 = 0.7006 | 1017.6 ± 4.3
273.18 K, x1 = 0.8803 | 1149.12 ± 4.4
273.2 K, x1 = 0.1746 | 648.23 ± 4.2
273.2 K, x1 = 0.4965 | 873.27 ± 4.2
278.19 K, x1 = 0.8803 | 1135.29 ± 4.4
278.2 K, x1 = 0.1746 | 640.01 ± 4.2
278.2 K, x1 = 0.7006 | 1004.24 ± 4.3
278.24 K, x1 = 0.4965 | 862 ± 4.2
283.18 K, x1 = 0.1746 | 630.77 ± 4.1
283.19 K, x1 = 0.4965 | 851.76 ± 4.1
283.19 K, x1 = 0.8803 | 1121.17 ± 4.3
283.2 K, x1 = 0.7006 | 991.21 ± 4.2
288.21 K, x1 = 0.8803 | 1106.57 ± 4.3
288.22 K, x1 = 0.7006 | 977.85 ± 4.1
288.25 K, x1 = 0.4965 | 842.07 ± 4
293.28 K, x1 = 0.4965 | 831.58 ± 3.9
293.28 K, x1 = 0.7006 | 963.78 ± 4.1
293.28 K, x1 = 0.8803 | 1091.31 ± 4.3
